# Results published in a melting point compilation (Tetko et al.).
row,Structure (SMILES),melting point
1,CCOC(=O)/C(C#N)=C/Nc1cc(OC)cc(OC)c1,140 to 142 °C
2,Cc1c(C(=O)O)sc2nnc(S)n12,275 to 277 °C
3,OCc1cc(-c2ccccc2)[nH]n1,144 to 146 °C
4,CCOc1cc(C#N)cc(Cl)c1O,126 to 128 °C
5,Nc1ccn(CCN2CCNC2=O)n1,118 to 120 °C
6,OC1C2CCCC1CN(Cc1ccccc1)C2 (stereo unspecified),88 to 90 °C
7,N#CCc1cccc2cccnc12,84 to 86 °C
8,O=C1CC2(Cc3ccccc3C2)C(=O)O1,164 to 166 °C
9,Sc1nc2ccccc2n1C1CCCCC1,178 to 182 °C
10,Cc1cc(F)c(C(=O)O)cc1F,167 to 169 °C
11,O=C(Nc1nc(C(F)(F)F)cs1)OCC(F)(F)F,78 to 80 °C
12,Fc1cc(CCl)c2c(c1)COC(c1ccccc1)O2 (stereo unspecified),61 to 65 °C
13,CS/C(=N\C#N)N1CCOCC1,126 to 128 °C
14,COc1c(OC(F)F)ccc(C=O)c1[N+](=O)[O-],61 to 63 °C
15,Sc1nnnn1Cc1ccco1,78 to 80 °C
16,CSc1snc(O)c1C#N,230 to 232 °C
17,O=C1CC(C(F)F)=NN1,149 to 151 °C
18,Cc1nnc2c(Cl)nccn12,212 to 214 °C
19,CC(C)(C)OC(=O)N1CCC(C(=O)O)C1 (stereo unspecified),134 to 136 °C
20,COc1cc(C(=O)O)cc(Cl)c1OC(C)C,156 to 158 °C
21,CC1CCCCC1Nc1nnc(S)s1 (stereo unspecified),133 to 135 °C
22,CN(CC(=O)O)C(N)=O,141 to 143 °C
23,NC(=O)CCCO,42 to 44 °C

row,Structure (SMILES),melting point
1,Sc1nc2cc(Cl)cnc2[nH]1,352 to 354 °C
2,Cc1nccn1-c1cc(C#N)ccn1,194 to 196 °C
3,O=Cc1csc(-c2ccccn2)n1,130 to 132 °C
4,O=C(O)C1(Cc2nc3ccccc3s2)CCCCC1,170 to 172 °C
5,N#CCc1cc2ccccc2nc1Cl,128 to 130 °C
6,Cn1nnnc1SCC(=O)O,108 to 110 °C
7,Clc1nnc(-c2ccccc2)s1,82 to 84 °C
8,O=C1CCC(O)(c2cccc(Cl)c2)CC1,119 to 121 °C
9,CC(C)(C)c1nn(-c2ccccc2)cc1C=O,57 to 59 °C
10,CC(C)(C)CC(O)C(=O)O (stereo unspecified),71 to 73 °C
11,Cc1nn(CCC(=O)O)c(C)c1[N+](=O)[O-],116 to 118 °C
12,c1cnc2c(c1)NCCCN2,84 to 86 °C
13,O=C(NCCCl)OCC(F)(F)F,31 to 33 °C
14,CC(C)c1[nH]nc(C(=O)O)c1[N+](=O)[O-],149 to 151 °C
15,Cc1cc(Cl)c(C(=O)O)cc1C,180 to 182 °C
16,CN(C)C(=O)c1cn[nH]c1N,167 to 169 °C
17,Cc1cc(N(C)C)ccc1C#N,59 to 61 °C
18,Nc1nc(-c2ccccc2)c(-c2ccccc2)s1,181 to 183 °C
19,Cc1nc(Cl)cc(-n2ccnc2)n1,114 to 116 °C
20,O=C1CC(C(=O)O)C(C(=O)O)C1 (stereo unspecified),186 to 188 °C
21,CCCC(C)NC(=O)C(C)Cl (stereo unspecified),51 to 53 °C
22,NC(=O)C1CCC(C(F)(F)F)NC1 (stereo unspecified),127 to 129 °C
23,CCOC(=O)CO/N=C(\C(=O)O)c1cc[nH]n1,128 to 130 °C

row,Structure (SMILES),melting point
1,O=C1NCCC1c1ccccc1 (stereo unspecified),82 to 84 °C
2,Cc1ocnc1C(=O)O,127 to 129 °C
3,CCC(CC)n1nccc1C(=O)O,137 to 139 °C
4,CC(=O)c1sc(C(C)(C)C)nc1C,66 to 68 °C
5,NC(=O)OCC(F)(F)F,42 to 44 °C
6,COC(=O)c1cc2c(F)cc(F)cc2[nH]1,198 to 200 °C
7,O=S1(=O)CCN(S(=O)(=O)Cl)CC1,177 to 179 °C
8,Cn1c(C=O)nc2cc(C(F)(F)F)ccc21,111 to 113 °C
9,OC(c1ccccc1)c1cccc(Cl)c1Cl (stereo unspecified),79 to 81 °C
10,Cn1cc(-c2nnc(N)o2)cn1,253 to 255 °C
11,c1ccc(CCNc2nc(-c3ccccc3)cs2)cc1,115 to 117 °C
12,CC(C)CCNC(=O)CC(=O)NCCC(C)C,69 to 71 °C
13,Nc1nc2cc(F)c(F)cc2[nH]1,144 to 146 °C
14,CC(C)(C)c1nc(CC(=O)O)cs1,94 to 96 °C
15,O=C(CCl)NC12CC3CC(CC(C3)C1)C2,110 to 112 °C
16,COc1cc(Cl)c(C)cc1NC(=O)CCl,167 to 169 °C
17,Cc1nc(N)c(Cl)cc1Cl,136 to 138 °C
18,CC(C)(C)OC(=O)N1CCC(CC#N)CC1,72 to 74 °C
19,O=C(O)CSc1nnc(-c2cccs2)n1C1CC1,229 to 231 °C
20,COc1cc(OC)c2cc(C(=O)O)[nH]c2c1OC,181 to 183 °C
21,CC(C)(C)c1ncc(C(=O)O)s1,204 to 206 °C

# Other lines, results leading:
row,melting point,Structure (SMILES)
1,92 to 94 °C,O=C(CCl)NOCc1ccccc1
2,96 to 98 °C,COC(=O)c1ccc(OCc2ccccc2)c(N)c1
3,182 to 184 °C,O=C(O)c1ccc(=O)n(Cc2ccccc2Cl)c1
4,133 to 135 °C,CC(C)CCn1nc(C(=O)O)c2ccccc2c1=O
5,129 to 133 °C,O=c1c2ccccc2nnn1CCl
6,105 to 107 °C,CC(C)CN1C(=O)c2ccccc2N2C(=O)CCC12C(=O)O (stereo unspecified)
7,123 to 125 °C,Nc1nc2ccccn2n1
8,69 to 71 °C,CC(Cl)C(=O)Nc1ccnn1C(C)C (stereo unspecified)
9,106 to 108 °C,Cc1ccc(S(=O)(=O)Nc2ccc(O)cc2)s1
10,128 to 130 °C,CC(CS(=O)(=O)c1ccc(F)cc1)C(=O)O (stereo unspecified)
11,129 to 131 °C,Nc1cc(F)ccc1S(N)(=O)=O
12,155 to 156 °C,O=C(O)c1ccccc1-n1ncc(Cl)c(Cl)c1=O
13,176 to 178 °C,O=C(O)c1nnn(-c2ccc(Br)cc2)c1C1CC1
14,86 to 88 °C,COC(=O)C(=O)CC(=O)c1ccc(C)cc1
15,163 to 167 °C,NC(=O)Nc1cccc(Br)c1
16,144 to 146 °C,Cc1ccc(OCC(=O)O)c(C=O)c1
17,179 to 181 °C,O=C(O)C1(C(=O)Nc2ccc(F)cc2)CC1
18,341 to 343 °C,O=C(O)c1ccc(-n2cncn2)nc1
19,147 to 149 °C,O=C(O)/C=C/c1cc(C(F)(F)F)ccc1Cl
20,138 to 140 °C,Nc1ccnn1-c1ccc([N+](=O)[O-])cc1
21,187 to 189 °C,O=C(O)c1ccc(-c2ccccc2)cc1F
22,120 to 122 °C,Cc1cc(N)nn1-c1ccc(F)cc1F
23,145 to 147 °C,N#Cc1ccccc1OCc1ccc(C(=O)O)o1
24,185 to 187 °C,O=C(CCl)Nc1ccc(S(=O)(=O)N2CCCC2)cc1
25,229 to 231 °C,NC(=O)Cc1nc2ccccc2[nH]1
26,100 to 102 °C,COCc1cc(C(=O)O)ccc1F
27,150 to 152 °C,CS(=O)(=O)c1ccc(OCCCC(=O)O)cc1

row,melting point,Structure (SMILES)
1,149 to 151 °C,Cc1ccc(C(N)=S)o1
2,78 to 80 °C,CC1(NC(=O)c2ccnc(F)c2)CCCC1
3,179 to 181 °C,Cn1c(CCl)nc2ccccc2c1=O
4,188 to 190 °C,Cc1c(N)cc(C(N)=O)cc1F
5,87 to 89 °C,O=C(O)COc1ccccc1OCc1ccccc1
6,210 to 212 °C,Nc1cc(S(=O)(=O)N2CCOCC2)ccc1N1CCOCC1
7,110 to 112 °C,CC(Cl)c1nc2cc(Cl)ccc2n1Cc1ccccc1 (stereo unspecified)
8,164 to 166 °C,O=C(Cc1nc2ccccc2s1)Nc1ccc(Cl)cc1
9,142 to 144 °C,NC(=O)CCn1ccc(N)n1
10,100 to 110 °C,O=S(=O)(c1cccc(C(F)(F)F)c1)N1CCNCC1
11,92 to 94 °C,COC(=O)CN(C)c1ccc(Br)cn1
12,136 to 138 °C,Cc1ccc2nc(CCl)cc(=O)n2c1
13,120 to 122 °C,Nc1ccc(C(O)c2ccccc2)cc1[N+](=O)[O-] (stereo unspecified)
14,182 to 184 °C,O=C(O)CNC(=O)c1ccccc1Cl
15,167 to 169 °C,O=C(O)CNC(=O)c1ccccn1
16,164 to 166 °C,O=C(O)c1ccc([N+](=O)[O-])cc1Br
17,153 to 157 °C,Cn1cnnc1Sc1ccc(N)cc1
18,133 to 135 °C,CCOc1ccc(C=C(C(=O)O)c2cccs2)cc1
19,134 to 136 °C,O=c1n(CCO)nc2ccccn12
20,237 to 239 °C,COc1ccc(C2(c3ccc(OC)cc3)NC(=O)NC2=O)cc1
21,149 to 151 °C,Nc1ccccc1NC(=O)c1ccccc1
22,112 to 114 °C,NC(=O)c1ccccc1OCCO
23,207 to 209 °C,O=C1CS/C(=C/C(=O)c2cccc(Cl)c2)N1
24,194 to 196 °C,O=C(O)c1nn(-c2ccccc2F)c2c1CCC2
25,120 to 122 °C,O=C(CCCl)NCC(=O)c1ccccc1
26,99 to 101 °C,COC(=O)c1ccc(C=O)[nH]1
27,148 to 150 °C,Cn1c(=O)n(C)c2cc(N)ccc21

row,melting point,Structure (SMILES)
1,293 to 295 °C,N#CCC(=O)c1c[nH]c2cc(Cl)ccc12
2,126 to 128 °C,Nc1cccc(C(=O)CCC(=O)O)c1
3,211 to 213 °C,O=C(O)CCCNC(=O)c1cccnc1
4,231 to 233 °C,CSc1nc(-c2ccc(F)cc2)nc(C)c1C(=O)O
5,269 to 271 °C,Cc1ccc2ncc(C(=O)O)c(O)c2c1
6,163 to 165 °C,CC1=CC(=O)N(c2ccccc2C(=O)O)C1=O
7,111 to 113 °C,O=C(O)c1cccc(CO)c1
8,51 to 55 °C,O=C1CC(c2ccccc2)C(=O)O1 (stereo unspecified)
9,171 to 173 °C,N#Cc1cccnc1Oc1ccccc1N
10,111 to 113 °C,O=C1CCC(O)(c2cccc(F)c2)CC1
11,67 to 69 °C,O=C(c1ccccc1)c1cc(Br)ccc1F
12,145 to 147 °C,O=C(O)CCOc1cc(Cl)ccc1Cl
13,113 to 115 °C,CC(=O)Nc1cccc(CO)c1
14,73 to 75 °C,Cc1ccc(C)c(SCC(=O)O)c1
15,189 to 191 °C,O=C(O)c1ccc(NS(=O)(=O)c2cc(Cl)sc2Cl)cc1
16,100 to 102 °C,Cc1cc(C=O)c(C)n1-c1ccc(F)cc1
17,179 to 181 °C,CC(C)(C)Oc1ccc(C(N)=S)cc1
18,266 to 268 °C,O=C(O)c1ccc(S(=O)(=O)Nc2ccccc2F)cc1
19,189 to 191 °C,CS(=O)(=O)c1ccc(C(=O)NN)cc1
20,129 to 131 °C,O=C(Nc1ccccc1C(=O)O)OCc1ccccc1
21,85 to 87 °C,CS(=O)(=O)c1ccc(OCCCl)cc1
22,201 to 203 °C,CCOc1cc(/C=C/C(=O)O)ccc1OCc1cccnc1
23,107 to 109 °C,NC(=O)C(N)c1cccc(Br)c1 (stereo unspecified)
24,220 to 222 °C,Cc1ccc(-c2nn(-c3ccccc3)cc2C=CC(=O)O)cc1
25,181 to 183 °C,Cc1c(C(=O)O)nnn1-c1ccc(F)cc1
